# Data: US20190209682A1, “ISOFORM-SPECIFIC, CONTEXT-PERMISSIVE TGFB1 INHIBITORS AND USE THEREOF” (Scholar Rock, Inc., priority 2017, published 2019)
# Columns and labels:
# [1] = Rat toxicity study, Phase II; assay type: in vivo
# [2] = test system: tonic SMAD2/3 signaling in BAL cells; assay: Pharmacodynamics, tonic phospho-SMAD2/3 in BAL cells of healthy rats; assay type: in vivo, rat; conditions: single oral gavage dose 100 mg/kg, 2 hours post-dosing
# Experimental: To confirm isoform-selective inhibition of TGFβ1 in vivo, a pharmacodynamics study was conducted in which effects of Ab3 on tonic phospho-SMAD2/3 levels were assessed in bronchoalveolar lavage (BAL) cells collected from healthy rats. It is reported in the literature that under homeostatic conditions, BAL cells predominantly express TGFβ2/3, but little TGFβ1, while the latter becomes preferentially elevated in pathologic conditions.
# Healthy Sprague Dawley rats (approximately 6-8 weeks old, weighing 200-250 g at the beginning of the study; Charles River) were randomized by bodyweight into study groups and dosed as described below.
# Animals received test antibodies (huNEG-mIgG1, […], or Ab3) on Days 1, 8, and 15 by intraperitoneal injection. Animals are euthanized on Day 16 for BAL and serum collections. One group of control animals was dosed with a single oral gavage (PO) dose of LY2109761 (small molecule ALK5 inhibitor) at 100 mg/kg and was euthanized at 2 hours (+/−20 min) post-dosing for BAL collections.
# To collect BAL samples, the whole lung was lavaged three times with 5.0 mL of ice-cold Dulbecco's phosphate buffered saline. […]
# Phospho-SMAD2/3 assays were performed by ELISA (Cell Signaling Technologies) according to the manufacturer's instructions. Results were assessed by phosphorylated-to-total SMAD2/3 ratios.
# [3] = Rat toxicity study, Phase I; conditions: for Aortic root: Hemorrhage, Minimal / Aortic root: Infiltrate, mixed cell, Minimal / Atrium: Hemorrhage, Minimal / Atrium: Hyperplasia, endothelium, Minimal / Atrium: Infiltrate, mixed cell, Minimal / Atrium: Infiltrate, mixed cell, Slight / Coronary artery: Necrosis with inflammation, Slight / Heart valves: Valvulopathy, Minimal / Heart valves: Valvulopathy, Moderate / Heart valves: Valvulopathy, Slight / Myocardium: Degeneration/necrosis, Minimal / Myocardium: Degeneration/necrosis, Slight / Myocardium: Hemorrhage, Slight / Myocardium: Infiltrate, mixed cell, Slight: incidence
# Experimental: Animal body weight was determined at days 1, 3, and 7 of the dosing phase. Animals were sacrificed at day 8 and necropsies performed.
# [4] = 200 mg/kg oral gavage once daily for five days
compound,measurement,setting,value
c1ccc(-c2nn3c(c2-c2ccnc4cc(OCCN5CCOCC5)ccc24)CCC3)nc1 [LY2109761],Heart weights,[1]; 200 mg/kg,increased heart weights
same,Liver weights,[1]; 200 mg/kg,Increased liver weights
same,Thymus weights,[1]; 200 mg/kg,decreased thymus weights
same,Thyroid weights,[1]; 200 mg/kg,increased thyroid weights
same,Uterus weights,[1]; 200 mg/kg,decreased uterus weights
same,Heart findings,[1]; [4],test article-related heart findings occurred
same,"Microscopic findings in bones, liver, pancreas (artery), thymus, thyroid, female reproductive tissues, mammary gland",[1]; [4],microscopic findings occurred
same,Tonic SMAD2/3 signaling (phosphorylated-to-total SMAD2/3 ratio),[2],significantly suppressed
same,Animals found dead at day 7,"[3]; 200 mg/kg oral gavage once daily, n=5",Two
same,"Aortic root: Hemorrhage, Minimal","[3]; 200 mg/kg/day, n=5",1
same,"Aortic root: Infiltrate, mixed cell, Minimal","[3]; 200 mg/kg/day, n=5",1
same,"Atrium: Hemorrhage, Minimal","[3]; 200 mg/kg/day, n=5",1
same,"Atrium: Hyperplasia, endothelium, Minimal","[3]; 200 mg/kg/day, n=5",1
same,"Atrium: Infiltrate, mixed cell, Minimal","[3]; 200 mg/kg/day, n=5",2
same,"Atrium: Infiltrate, mixed cell, Slight","[3]; 200 mg/kg/day, n=5",0
same,"Coronary artery: Necrosis with inflammation, Slight","[3]; 200 mg/kg/day, n=5",0
same,"Heart valves: Valvulopathy, Minimal","[3]; 200 mg/kg/day, n=5",1
same,"Heart valves: Valvulopathy, Moderate","[3]; 200 mg/kg/day, n=5",1
same,"Heart valves: Valvulopathy, Slight","[3]; 200 mg/kg/day, n=5",3
same,"Myocardium: Degeneration/necrosis, Minimal","[3]; 200 mg/kg/day, n=5",0
same,"Myocardium: Degeneration/necrosis, Slight","[3]; 200 mg/kg/day, n=5",1
same,"Myocardium: Hemorrhage, Slight","[3]; 200 mg/kg/day, n=5",1
same,"Myocardium: Infiltrate, mixed cell, Slight","[3]; 200 mg/kg/day, n=5",0
same,Mortality,"[3]; 300 mg/kg oral gavage once daily, days 3, 6, or 7, all animals, n=5",sacrificed in a moribund condition or found dead
same,"Aortic root: Hemorrhage, Minimal","[3]; 300 mg/kg/day, n=5",0
same,"Aortic root: Infiltrate, mixed cell, Minimal","[3]; 300 mg/kg/day, n=5",0
same,"Atrium: Hemorrhage, Minimal","[3]; 300 mg/kg/day, n=5",2
same,"Atrium: Hyperplasia, endothelium, Minimal","[3]; 300 mg/kg/day, n=5",3
same,"Atrium: Infiltrate, mixed cell, Minimal","[3]; 300 mg/kg/day, n=5",3
same,"Atrium: Infiltrate, mixed cell, Slight","[3]; 300 mg/kg/day, n=5",1
same,"Coronary artery: Necrosis with inflammation, Slight","[3]; 300 mg/kg/day, n=5",1
same,"Heart valves: Valvulopathy, Minimal","[3]; 300 mg/kg/day, n=5",2
same,"Heart valves: Valvulopathy, Moderate","[3]; 300 mg/kg/day, n=5",0
same,"Heart valves: Valvulopathy, Slight","[3]; 300 mg/kg/day, n=5",3
same,"Myocardium: Degeneration/necrosis, Minimal","[3]; 300 mg/kg/day, n=5",1
same,"Myocardium: Degeneration/necrosis, Slight","[3]; 300 mg/kg/day, n=5",1
same,"Myocardium: Hemorrhage, Slight","[3]; 300 mg/kg/day, n=5",0
same,"Myocardium: Infiltrate, mixed cell, Slight","[3]; 300 mg/kg/day, n=5",1
same,Animals with clear fluid in the thoracic cavity and enlarged thymus (edema),"[3]; 300 mg/kg, found dead on Day 3",one
same,Animals with abnormally-shaped sternum,"[3]; each treatment group, 200 mg/kg or 300 mg/kg",four
same,Bone findings,"[3]; sternum, femur and tibia, higher incidence and/or severity with LY2109761",macroscopic abnormally shaped sternum and microscopic increased thickness of the hypertrophic zone
same,"Heart valve findings, microscopic",[3]; ≥200 mg/kg,valvulopathy
same,Heart weights,[3]; ≥200 mg/kg,Increased heart weights
